Reference: US5175283A, “Azetidin-2-one derivatives as serine protease inhibitors” (Bristol-Myers Squibb Company, priority 1992, dated 1992)
“And” between values parts separate entries of the source, which are not always exact repeats. Equal entries are not always repeated. Structures can show the parent of a compound that is named as a salt.

Columns and labels:
[1] = target: T1, human α-thrombin (Homo sapiens, UniProt P00734); assay: Enzyme assay for the inhibition of thrombin (s-2238 substrate); assay type: biochemical; parameters: key to Thrombin k2 /ki (second order rate constant), cells with symbol *: *: not measurable; conditions: for Thrombin k2 /ki (second order rate constant for inactivation of the enzyme) / Thrombin k2 /ki (second order rate constant), cells with symbol *: human α-thrombin; for Thrombin k2 /ki (second order rate constant for inactivation of the enzyme): s-2238, pH 7.4, room temperature; for IC50: 3 min incubation of drug with enzyme, room temperature; for Thrombin k2 /ki (second order rate constant), cells with symbol *: * = not measurable
T1 construct: purified human α-thrombin dissolved in thrombin assay buffer
Procedure: 1. Enzyme Assays for the Inhibition of Thrombin The following reagents were used in these assays: Thrombin assay buffer: 145 mM NaCl, 5 mM KCl, 30 mM N-2-hydroxyethyl piperazine-N'-2-ethanesulfonic acid, pH 7.4, 1 mg/ml polyethylene glycol (PEG-8000). 3 mM D-Phe-Pip-Arg-p-nitroanilide (s-2238) in H2 O. 3 U/ml purified human α-thrombin dissolved in thrombin assay buffer. Inhibitors to be tested were dissolved in H2 O, methanol, or DMSO just prior to use. Assay Procedure To each well in a 96-well microtiter plate, 270 μl of assay buffer was added. Human α-thrombin (10 μl of 3 U/ml) was added, then 10 μl of inhibitor were added and mixed. The samples were incubated at room temperature for a defined period of time (3 min for initial IC50 determinations). The enzymic reaction was started with 10 μl of 3 mM s-2238 substrate and continued at room temperature. The change in optical density was measured at 405 nm. A kinetic microplate reader (Molecular Devices Corporation Vmax) was used to measure the change in optical density over time. Results are reported in Table 1 as IC50 values, i.e., the drug concentration in mole/liter which caused 50% inhibition of the enzyme activity (after incubation of the drug with the enzyme for 3 min). Alternatively, results are also reported in Table 1 expressed as k2 /ki which is the second order rate constant in per mole per minute for inactivation time of the enzyme [Kitz, et al., J. Biol. Chem., 237, 3245 (1962)].

[2] = test system: Thrombin Induced Clotting Time; assay: Thrombin induced clotting time ex vivo in plasma of i.p. dosed rats; conditions: rat, 50 mg/kg i.p.
Procedure: Procedure for Determining the Concentration Required for Doubling Thrombin Clotting Time--Clotting Time Assays
(§1) The following reagents were used in these assays:
Owren's Veronal Buffer: 125 mM NaCl, 28.4 mM sodium barbital, pH 7.35.
Human citrated plasma obtained from human volunteers or citrated plasma obtained from IP-dosed animals (prepared as described below).
25 NIH Units/ml human α-thrombin in thrombin buffer for use with rat plasma.
Test compound was prepared just prior to dosing. Routinely the drugs are dissolved in water. Animals were dosed by i.p. injection.
After the appropriate time period, the animals were ether-anesthetized, and blood was drawn by cardiac puncture using 333 μl of 3.8% sodium citrate per 3 ml blood. After all of the samples were obtained, the tubes were centrifuged at 1,500 rpm for 15 min as described for the human blood samples.
Clotting Time Measurement
Clotting times were determined by pipetting 0.1 ml of Owren's buffer (pre-warmed 37° C.) and 0.1 ml of human or rat plasma into yellow sample cuvettes. For studies with human plasma 10 U/ml human thrombin (10 ml) was placed in the reservoir assembly station of the MLA 700. (Medical Laboratory Automation, Electra 700 Reservoir Assembly). For rat studies, the human thrombin concentration was 25 U/ml. The cuvettes were vortexed and then placed on the MLA 700 sample wheel. The coagulation timer (MLA 700) automatically dispenses 0.1 ml human thrombin into the sample in each cuvette. Detection of the fibrin clot was determined optically by the MLA 700.
In separate studies, two compounds, Compound XIX and Compound XI, were dosed 50 mg/kg I.P. to three rats in each study group. […] "Term" indicates "terminated sample" where a clot was unable to form after approximately 99 seconds. When this occurred, the animal plasma was diluted 1: 1 with control rat plasma and the sample tested again. If need, the animal plasma was diluted 1:4 and tested again.

[3] = target: T1, human α-thrombin; assay: Concentration required for doubling thrombin clotting time in human plasma; assay type: biochemical; conditions: human citrated plasma, 10 U/ml human thrombin; read-out: ED50, drug concentration required to double clotting time
Procedure: Procedure for Determining the Concentration Required for Doubling Thrombin Clotting Time--Clotting Time Assays The following reagents were used in these assays: Owren's Veronal Buffer: 125 mM NaCl, 28.4 mM sodium barbital, pH 7.35. Human citrated plasma obtained from human volunteers or citrated plasma obtained from IP-dosed animals (prepared as described below). 10 NIH Units/ml human α-thrombin in thrombin buffer for use with human plasma. […] The blood was centrifuged at […] (480×g) for 15 min at room temperature (using a Sorvall RT 6000B centrifuge). The plasma was removed, pooled, and aliquoted into small tubes which were stored frozen for later use. Clotting Time Measurement Clotting times were determined by pipetting 0.1 ml of Owren's buffer (pre-warmed 37° C.) and 0.1 ml of human or rat plasma into yellow sample cuvettes. For studies with human plasma 10 U/ml human thrombin (10 ml) was placed in the reservoir assembly station of the MLA 700. (Medical Laboratory Automation, Electra 700 Reservoir Assembly). For rat studies, the human thrombin concentration was 25 U/ml. The cuvettes were vortexed and then placed on the MLA 700 sample wheel. The coagulation timer (MLA 700) automatically dispenses 0.1 ml human thrombin into the sample in each cuvette. Detection of the fibrin clot was determined optically by the MLA 700. Studies were performed to determine the concentration of drug which caused a doubling of the clotting time in human plasma. From standard curves of thrombin activity added to the sample versus the clotting time, the concentration of drug which caused a doubling of the thrombin clotting time corresponded to inhibition of approximately 1/2 of the added thrombin clotting activity. Results are reported in Table 1 as ED50 values, i.e., the drug concentration required to double clotting time.

[4] = target: T2, bovine pancreatic trypsin (Bos taurus, UniProt P00760); assay: Enzyme assay for the inhibition of trypsin (Z-Val-Gly-Arg-pNA substrate); assay type: biochemical; conditions: 3 min incubation of drug with enzyme, room temperature, pH 8.0; read-out: Trypsin IC50
T2 construct: purified bovine pancreatic trypsin dissolved in trypsin assay buffer
T2 sequence (P00760 24-246): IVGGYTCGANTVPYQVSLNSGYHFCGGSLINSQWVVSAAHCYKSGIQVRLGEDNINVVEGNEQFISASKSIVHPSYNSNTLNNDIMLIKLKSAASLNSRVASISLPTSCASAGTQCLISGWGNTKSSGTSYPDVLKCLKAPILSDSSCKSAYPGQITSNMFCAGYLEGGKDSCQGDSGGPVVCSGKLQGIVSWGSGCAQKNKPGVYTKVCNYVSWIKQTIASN
Procedure: 2. Enzyme Assays for the Inhibition of Trypsin
as §1
Trypsin assay buffer: 2 mM CaCl2, 50 mM Tris/Cl pH 8.0.
3 mM Z-Val-Gly-Arg-pNA (Chromzyme TRy) dissolved in H2 O.
6 μg/ml of purified bovine pancreatic trypsin dissolved in trypsin assay buffer.
Inhibitors to be tested were dissolved in H2 O, methanol or DMSO just prior to use.
To each well in a 96-well microtiter plate, 270 μl of assay buffer was added. Bovine trypsin (10 μl of 6 μg/ml) was added. Inhibitor (10 μl ) was added, mixed, and then incubated at room temperature for 3 min. The enzymic reaction was started with 10 μl of 3 mM Z-Val-Gly-Arg-pNA substrate. The change in optical density was measured at 405 nm at room temperature. A kinetic microplate reader (Molecular Devices Corporation Vmax) was used to measure the change in optical density over time.
Results are reported in Table 1 as IC50 values, i.e., the drug concentration in mole/liter which caused 50% inhibition of the enzyme activity (after incubation of the drug with the enzyme for 3 min).

[5] = 0.5 hr. post dose, undiluted plasma, per animal

CCS(=O)(=O)[C@H]1[C@H](CCCNC(=N)N)C(=O)N1C(C)=O (relative stereo) [Compound X, trans-4-Ethylsulfonyl-3-quanidinopropyl-1-acetyl-2-azetidinone hydrochloride salt]
Thrombin k2 /ki (second order rate constant for inactivation of the enzyme) [1]: 3.0 × 10^6 m^-1 min^-1

CC(=O)N1C(=O)[C@@H](CCCNC(=N)N)[C@@H]1C(=O)NCC(=O)O (relative stereo) [Compound XIX, 4-[[(2-Hydroxy-2-oxoethyl)amino]carbonyl]-3-(3-guanidinopropyl)-1-acetyl-2-azetidinone hydrochloride salt]
Thrombin Induced Clotting Time (1:1 Control Plasma) ([2]; 0.5 hr. post dose, plasma diluted 1:1 with control rat plasma, hydrochloride salt, 50 mg/kg, in s): 14.4 and 17.3
Thrombin Induced Clotting Time [2, 5]: 45.2 s
Thrombin Induced Clotting Time, terminated samples [2, 5]: term. ("terminated sample" where a clot was unable to form after approximately 99 seconds)
Thrombin Induced Clotting Time ([2]; 2 hr. post dose, undiluted plasma, per animal, hydrochloride salt, 50 mg/kg): 12.9 s and 13.3 s and 14.4 s
Thrombin Induced Clotting Time ([2]; 5 hr. post dose, undiluted plasma, per animal, hydrochloride salt, 50 mg/kg): 13.5 s and 13.6 s and 13.3 s
Clotting time ex vivo, result in words ([2]; three rats per group): prolonged clotting time
IC50 [1]: 12 nM
Thrombin k2 /ki (second order rate constant for inactivation of the enzyme) [1]: 2.0 × 10^7 m^-1 min^-1
IC (2-fold clotting time) [3]: 0.43 µM

COC(=O)[C@H]1[C@H](CCCNC(=N)N)C(=O)N1S(=O)(=O)c1ccc(C)cc1.Cl (relative stereo) [I, trans-4-Methoxycarbonyl-3-(3-guanidinopropyl)-1-p-toluenesulfonyl-2-azetidinone hydrochloride salt]
IC50 [4]: 8 nM
IC50 [1]: 2 to 9 nM
Thrombin k2 /ki (second order rate constant for inactivation of the enzyme) [1]: 1.2 × 10^8 m^-1 min^-1
IC (2-fold clotting time) [3]: 65 µM

COC(=O)[C@H]1[C@H](CCCNC(=N)N)C(=O)N1C(C)=O (relative stereo) [II, trans-4-Methoxycarbonyl-3-[3-quanidinopropyl)-1-acetyl-2-azetidinone hydrochloride salt]
IC50 [4]: 40 nM
IC50 [1]: 2 nM
Thrombin k2 /ki (second order rate constant for inactivation of the enzyme) [1]: 1.9 × 10^7 m^-1 min^-1
IC (2-fold clotting time) [3]: 1.25 µM

COC(=O)[C@H]1[C@H](CCCNC(=N)N)C(=O)N1S(C)(=O)=O.Cl (relative stereo) [IV, trans-4-Methoxycarbonyl-3-(guanidinopropyl)-1-methylsulfonyl-2-azetidinone hydrochloride salt]
IC50 [4]: 70 nM
IC50 [1]: 20 nM
Thrombin k2 /ki (second order rate constant for inactivation of the enzyme) [1]: 1.5 × 10^6 m^-1 min^-1

COC(=O)[C@H]1[C@H](CCCCNC(=N)N)C(=O)N1S(=O)(=O)c1cccc2c(N(C)C)cccc12 (relative stereo) [XVII, trans-4-Methoxycarbonyl-3-(4-guanidinobutyl)-1-[(5-dimethylamino)-1-naphthalenesulfonyl]-2-azetidinone hydrochloride salt]
Thrombin k2 /ki (second order rate constant for inactivation of the enzyme) [1]: 3.7 × 10^5 m^-1 min^-1
IC (2-fold clotting time) [3]: 50 µM

CC(=O)N1C(=O)[C@H](CCCNC(=N)N)[C@@H]1C(=O)N1CCCCC1 (relative stereo) [XXIII, cis-4-(1-Piperidinocarbonyl)-3-guanidinopropyl-1-acetyl-2-azetidinone hydrochloride salt]
Thrombin k2 /ki (second order rate constant for inactivation of the enzyme) [1]: 4.3 × 10^4 m^-1 min^-1
IC (2-fold clotting time) [3]: 20 µM

CN(C)c1cccc2c(S(=O)(=O)N3CC(CCCNC(=N)N)C3=O)cccc12 (stereo not drawn) [IX, 3-Guanidinopropyl-1-[(5-dimethylamino)-1-naphthanesulfonyl)]-2-azetidinone hydrochloride salt]
IC50 [1]: 1000 nM
Thrombin k2 /ki (second order rate constant), cells with symbol * [1]: *
IC (2-fold clotting time) [3]: 30 µM

CC(=O)N1CC(CCCNC(=N)N)C1=O (stereo not drawn) [VIII, 3-Guanidinopropyl-1-acetyl-2-azetidinone hydrochloride salt]
IC50 [1]: 100 nM

CC(=O)N1C(=O)C(CCCNC(=N)N)C1C(=O)N1CCC[C@H]1C(=O)O (stereo partly drawn) [XVIII, trans-4-[(2-Carboxy-1-pyrrolidinyl)carbonyl]-3-(3-guanidino)-procyl-1-acetyl-2-azetidinone hydrochloride salt]
IC50 [1]: 49 nM
Thrombin k2 /ki (second order rate constant for inactivation of the enzyme) [1]: 4.3 × 10^6 m^-1 min^-1
IC (2-fold clotting time) [3]: 1.25 µM

CC(=O)OC1C(CCCNC(=N)N)C(=O)N1C(=O)C(C)(C)C (stereo not drawn) [XXI, 4-Acetyloxy-3-guanidinopropyl-1-t-butylcarbonyl-2-azetidinone hydrochloride salt]
IC50 [1]: 74 nM

CC(=O)OC1C(CCCNC(=N)N)C(=O)N1C(=O)c1ccccc1 (stereo not drawn) [XXII, 4-Acetyloxy-3-guanidinooropyl-1-phenylcarbonyl-2-azetidinone hydrochloride salt]
IC50 [1]: 35 nM
Thrombin k2 /ki (second order rate constant), cells with symbol * [1]: *
IC (2-fold clotting time) [3]: 10.0 µM
